Values quoted from earlier work as cited in US20200038317A1, “EXTENDED RELEASE, ABUSE DETERRENT PHARMACEUTICAL COMPOSITIONS” (SpecGX LLC, priority 2012, published 2020).

Conditions: at 25° C.

O=C(O)CC(O)(CC(=O)O)C(=O)O [citric acid]
relative humidity at which the plasticizer deliquesces: about 75 % relative humidity
